In data set [1] the test system is Mycosphaerella graminicola; Anamorph: Septoria tritici. In words: Leaf Blotch of Wheat (SEPTTR) fungicidal activity. In kind it is in vivo. Conditions: Zymoseptoria tritici; for pest or weed control at 100 ppm: rate 100 ppm (high volume application); for pest or weed control at 121.5 g/ha: rate 121.5 g/H (low volume application). The procedure: (§1) Technical grades of materials were dissolved in acetone, which were then mixed with nine volumes of water containing 110 ppm Triton X-100. The fungicide solutions were applied onto wheat seedlings using an automated booth sprayer to run-off. All sprayed plants were allowed to air dry prior to further handling. All fungicides were evaluated using the aforementioned method for their activity vs. all target diseases. Wheat leaf blotch and brown rust activity were also evaluated using track spray applications, in which case the fungicides were formulated as EC formulations, containing 0.1% Trycol 5941 in the spray solutions. Wheat plants (variety Yuma) were grown from seed in a greenhouse in 50% mineral soil/50% soil-less Metro mix until the first leaf was fully emerged, with 7-10 seedlings per pot. These plants were inoculated with an aqueous spore suspension of Septoria tritici either prior to or after fungicide treatments. After inoculation the plants were kept in 100% relative humidity (one day in a dark dew chamber followed by two to three days in a lighted dew chamber at 20° C.) to permit spores to germinate and infect the leaf. The plants were then transferred to a greenhouse set at 20° C. for disease to develop. When disease symptoms were fully expressed on the 1st leaves of untreated plants, infection levels were assessed on a scale of 0 to 100 percent disease severity. Percent disease control was calculated using the ratio of disease severity on treated plants relative to untreated plants.

For a further data set, the system named is Puccinia triticina. Kind of data set: Wheat Brown Rust (PUCCRT) fungicidal activity. Format: in vivo. Conditions: for pest or weed control at 100 ppm: rate 100 ppm (high volume application); for pest or weed control at 121.5 g/ha: rate 121.5 g/H (low volume application). The procedure:
as §1, with “plants. Wheat plants (variety Yuma) were grown from seed in a greenhouse in 50% mineral soil/50% soil-less Metro mix until the first leaf was fully emerged, with 7-10 seedlings per pot. These plants were inoculated with an aqueous spore suspension of Puccinia triticina either prior to or after fungicide treatments. After inoculation the plants were kept in a dark dew room at 22° C. with 100% relative humidity overnight to permit spores to germinate and infect the leaf. The plants were then transferred to a greenhouse set at 24° C. for disease to develop. Fungicide formulation, application and disease assessment followed the procedures as described in the Example A.” for “plants.”

A further data set deals with Leptosphaeria nodorum. In words: Wheat Glume Blotch (LEPTNO) fungicidal activity. The following applies: Parastagonospora nodorum, 24 h, 1 Day Protectant, read-out: LEPTNO 1DP Disease Control at 100 ppm. In kind it is in vivo. As to the method: as §1, with “After inoculation the plants were kept in 100% relative humidity (one day in a dark dew chamber followed by two to three days in a lighted dew chamber at 20° C.) to permit spores to germinate and infect the leaf. The plants were then transferred to a greenhouse set at 20° C. for disease to develop.” left out, “plants. […]” for “plants.”

The test system of the next data set is Venturia inaequalis. In words: Apple Scab (VENTIN) fungicidal activity. The following applies: 24 h, 1 Day Protectant, read-out: VENTIN 1DP Disease Control at 100 ppm. Format: in vivo.
In a further data set the test system is Uncinula necator. Kind of data set: Grape Powdery Mildew (UNCINE) fungicidal activity. In kind it is in vivo. The following applies: Erysiphe necator, 24 h, 1 Day Protectant, read-out: UNCINE 1DP Disease Control at 100 ppm.
In another data set the test system is Erysiphe cichoracearum. In words: Powdery Mildew of Cucumber (ERYSCI) fungicidal activity. Format: in vivo. The following applies: Golovinomyces cichoracearum, topical, 24 h, 1 Day Protectant, cucumber seedlings, read-out: ERYSCI Disease Control 1DP.
The subject of the next data set is Cercospora beticola. In words: Leaf Spot of Sugar Beets (CERCBE) fungicidal activity. The following applies: topical, 24 h, 1 Day Protectant, sugar beet plants, read-out: CERCBE Disease Control 1DP. In kind it is in vivo.
The test system of a further data set is Phakopsora pachyrhizi. In words: Asian Soybean Rust (PHAKPA) fungicidal activity. Format: in vivo. Conditions: topical, soybean plants. The procedure: Technical grades of materials were dissolved in acetone, which were then mixed with nine volumes of water containing 0.011% Tween 20. The fungicide solutions were applied onto soybean seedlings using an automated booth sprayer to run-off. All sprayed plants were allowed to air dry prior to further handling.
Soybean plants (variety Williams 82) were grown in soil-less Metro mix, with one plant per pot. Two weeks old seedlings were used for testing. Plants were inoculated either 3 days prior to or 1 day after fungicide treatments. Plants were incubated for 24 h in a dark dew room at 22° C. and 100% RH then transferred to a growth room at 23° C. for disease to develop. Disease severity was assessed on the sprayed leaves.

Data set [2] relates to Blumeria graminis f. Sp. Hordei. In words: Barley Powdery Mildew (ERYSGH) fungicidal activity. The following applies: 24 h, 1 Day Protectant, barley seedlings, read-out: ERYSGH Disease Control 1DP. In kind it is in vivo.
Another data set deals with Rhyncosporium secalis. In words: Barley Scald (RHYNSE) fungicidal activity. In kind it is in vivo. Conditions: Hordeum vulgare, 24 h, 1 Day Protectant, read-out: RHYNSE 1DP Disease Control at 100 ppm.
The subject of data set [3] is Magnaporthe grisea; Anamorph: Pyricularia oryzae. Kind of data set: whole plant or invertebrate. Conditions: 24 h, read-out: PYRIOR 1DP Disease Control at 100 ppm. Format: in vivo.
The subject of another data set is Alternaria solani. In words: Tomato Early Blight (ALTESO) fungicidal activity. Conditions: 24 h, 1 Day Protectant, tomato plants, read-out: ALTESO Disease Control 1DP. Format: in vivo.
The test system of data set [4] is Glomerella lagenarium; Anamorph: Colletotrichum lagenarium. Kind of data set: Cucumber Anthracnose (COLLLA) fungicidal activity. Format: in vivo. Conditions: Colletotrichum orbiculare, 24 h, 1 Day Protectant, cucumber seedlings, read-out: COLLLA Disease Control 1DP.
Where [5] appears, read: 24 h, 1 Day Protectant, read-out: SEPTTR 1DP disease control.
[6] abbreviates: 72 h, 3 Day Curative, read-out: SEPTTR 3DC disease control.
Setting [7] is: 24 h, 1 Day Protectant, read-out: PUCCRT 1DP disease control.
Setting [8] is: 72 h, 3 Day Curative, read-out: PUCCRT 3DC disease control.

Like-named read-outs stand apart in the source and are kept apart here.

As to `CO[C@@H]1[C@@H](CCC(C)C)CCC[C@H](N)C(=O)O[C@H]1C.Cl`, the melting point (usually the temperature, or range, at which the solid turns liquid) fell in the range of 218 to 220 °C.
Consider `COc1ccnc(C(=O)N[C@H]2CCC[C@H](Cc3ccc(F)cc3)[C@@H](OCC3CC3)[C@H](C)OC2=O)c1O` [F10], for which the pest or weed control at 100 ppm (in data set [1] (setting [5]); in [1] (setting [6]); in the data set on Puccinia triticina (setting [7]); with Puccinia triticina (setting [8])) was 80 to 100% throughout. The pest or weed control at 121.5 g/ha in data set [1] (setting [5]) lay in the range of 80 to 100%; in [1] (setting [6]), 80 to 100%; with Puccinia triticina (setting [7]), 80 to 100%; in the data set with Puccinia triticina (setting [8]), 0 to 80%.
`COc1ccnc(C(=O)N[C@H]2CCC[C@H](CCC(C)C)[C@@H](OC(=O)C3CCCC3)[C@H](C)OC2=O)c1OCOC(C)=O` [F96]: the pest or weed control at 100 ppm in [1] (setting [5]) fell in the range of 80 to 100%; in data set [1] (setting [6]), 80 to 100%; in the data set on Puccinia triticina (setting [7]), 80 to 100%; in the data set on Puccinia triticina (setting [8]) it was 80 to 100%; with Leptosphaeria nodorum, 80 to 100%; with Venturia inaequalis, 0 to 80%. The pest or weed control at 100 ppm in the data set with Uncinula necator is 80 to 100%; in the data set with Erysiphe cichoracearum it was 80 to 100%; in the data set with Cercospora beticola, 80 to 100%; in data set [2], 0 to 80%; in the data set with Rhyncosporium secalis it was 80 to 100%; in data set [3], 80 to 100%. The pest or weed control at 100 ppm (in the data set with Alternaria solani; in data set [4]) was 80 to 100% in each case. Besides, the pest or weed control at 121.5 g/ha in data set [1] (setting [5]) fell in the range of 80 to 100%; in data set [1] (setting [6]) it was 80 to 100%; with Puccinia triticina (setting [7]) it was 80 to 100%; in the data set on Puccinia triticina (setting [8]), 0 to 80%. The pest or weed control at 25 ppm fell in the range of 80 to 100% in the data set on Phakopsora pachyrhizi (24 h, 1 Day Protectant, read-out: PHAKPA Disease Control 1DP) and 0 to 80% in the data set on Phakopsora pachyrhizi (72 h, 3 Day Curative, read-out: PHAKPA Disease Control 3DC).

The values are drawn from patent US9629365B2, “Macrocyclic picolinamides compounds with fungicidal activity” (DOW AGROSCIENCES LLC, priority 2013, dated 2017).
